Measurements published in patent US6737383B1, “Herbicidal oxadiazolidines” (priority 1999, dated 2004).

Assays:
cocklebur = assay: Test B pre/postemergence cocklebur; format: in vivo, Xanthium strumarium
Outline: (§1)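 Test chemicals in a non-phytotoxic solvent mixture with surfactant were sprayed preemergence onto planted seeds and postemergence onto plants 2 to 18 cm tall (1- to 4-leaf stage). After twelve to sixteen days in a greenhouse, injury was visually rated against untreated controls from 0 (no effect) to 10 (complete control).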

sugar beet = assay: Test B pre/postemergence sugar beet; format: in vivo, Beta vulgaris
Outline: as §1

smallflower flatsedge = assay: Test B flood test smallflower flatsedge; format: in vivo, Cyperus difformis
Outline: (§2)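 Flood test on plants grown to the 2-leaf stage; treated plants kept in greenhouse twelve to sixteen days, then visually rated against controls on a 0 (no effect) to 10 (complete control) scale.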

bamyardgrass = assay: Test B flood test barnyardgrass; format: in vivo, Echinochloa crus-galli
Outline: as §2

winter wheat [1] = assay: Test E winter wheat; format: in vivo, Triticum aestivum; conditions: Postemergence
Outline: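 Greenhouse test: for postemergence, foliar application at 1- to 4-leaf stage; compound in non-phytotoxic solvent with surfactant. Rating is visual, relative to untreated controls, about 21 to 28 days after treatment.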

blackgrass = assay: Test E blackgrass; format: in vivo, Alopecurus myosuroides; conditions: Preemergence
green foxtail = assay: Test E green foxtail; format: in vivo, Setaria viridis; conditions: Preemergence
Italian ryegrass = assay: Test E Italian ryegrass; format: in vivo, Lolium multiflorum; conditions: Preemergence
winter wheat [2] = assay: Test E winter wheat; format: in vivo, Triticum aestivum; conditions: Preemergence
wild oat = assay: Test E wild oat; format: in vivo, Avena fatua; conditions: Preemergence, 0 to 100 scale where 0 is no effect and 100 is complete control
winter barley = assay: Test E winter barley; format: in vivo, Hordeum vulgare; conditions: Preemergence
[3] = Postemergence, Rate 62 g/ha, scale 0 to 10, 0 is no effect, 10 is complete control
[4] = Postemergence, Rate 250 g/ha, scale 0 to 10, 0 no effect, 10 complete control
[5] = Preemergence, Rate 62 g/ha, scale 0 to 10 (0 no effect, 10 complete control)
[6] = Preemergence, Rate 125 g/ha, scale 0 to 10 (0 no effect, 10 complete control)
[7] = Preemergence, Rate 250 g/ha, scale of 0 to 10 where 0 is no effect and 10 is complete control
[8] = Preemergence, Rate 500 g/ha, scale 0 (no effect) to 10 (complete control)
[9] = Rate 125 g/ha, Postemergence, scale 0 to 10, 0 no effect, 10 complete control
[10] = Rate 500 g/ha, Postemergence, scale 0 to 10, 0 no effect, 10 complete control
[11] = Rate 125 g/ha, Postemergence section (flood test species), scale 0 to 10, 0 no effect, 10 complete control
[12] = Rate 250 g/ha, headed Pre-emergence (flood test species), scale 0 to 10 (0 no effect, 10 complete control)
[13] = Rate 500 g/ha, headed Pre-emergence (flood test species), scale 0 to 10 (0 no effect, 10 complete control)
[14] = Rate 500 g/ha, listed under Postemergence (flood test species), scale 0 to 10, 0 no effect, 10 complete control
[15] = flood test, listed under Postemergence, Rate 250 g/ha, scale 0 to 10, 0 no effect, 10 complete control
[16] = Rate 500 g/ha, 0 to 100 scale where 0 is no effect and 100 is complete control
[17] = Rate 1000 g/ha, 0 to 100 scale where 0 is no effect and 100 is complete control

In the case of `CC(C)N(C(=O)n1oc(=O)n(Cc2cccs2)c1=O)c1ccc(F)cc1F` [Compound 86], the “Cocklebur plant response rating” value (cocklebur; [3]) is reported as 0, the “Cocklebur plant response rating” value (cocklebur; [4]) is reported as 2 and the “Cocklebur plant response rating” value (cocklebur; [5]) is reported as 0. For the same molecule, the “Plant response rating, Cocklebur” value (cocklebur; [6]) was 0, the “Plant response rating, Cocklebur” value (cocklebur; [7]) was 0 and the “Cocklebur plant response rating” value (cocklebur; [8]) was 0. The “Cocklebur plant response rating” value (cocklebur; [9]) was 1, the “Cocklebur plant response rating” value (cocklebur; [10]) was 2 and the “Sugarbeets plant response rating” value (sugar beet; [3]) was 0. The “Sugarbeets plant response rating” value (sugar beet; [4]) was 3, the “Sugarbeets plant response rating” value (sugar beet; [5]) was 0 and the “Plant response rating, Sugarbeets” value (sugar beet; [6]) was 0. For the same molecule, the “Plant response rating, Sugarbeets” value (sugar beet; [7]) was 3, the “Sugarbeets plant response rating” value (sugar beet; [8]) was 3 and the “Sugarbeets plant response rating” value (sugar beet; [9]) was 3. The “Sugarbeets plant response rating” value (sugar beet; [10]) was 6, the “S. Flatsedge plant response rating” value (smallflower flatsedge; [3]) was 0 and the “S. Flatsedge plant response rating” value (smallflower flatsedge; Pre-emergence, Rate 1000 g/ha, scale 0 to 10 (0 no effect, 10 complete control)) was 0. For the same molecule, the “S. Flatsedge plant response rating” value (smallflower flatsedge; [11]) was 0, the “S. Flatsedge plant response rating” value (smallflower flatsedge; [12]) was 0 and the “Plant response rating, S. Flatsedge” value (smallflower flatsedge; [13]) was 0. The “S. Flatsedge plant response rating” value (smallflower flatsedge; [14]) was 0, the “S. Flatsedge plant response rating” value (smallflower flatsedge; Rate 2000 g/ha, Pre-emergence (as headed), scale 0 to 10) was 0 and the “S. Flatsedge plant response rating” value (smallflower flatsedge; [15]) was 0. For the same molecule, the “Barnyardgrass plant response rating” value (bamyardgrass; [3]) was 0, the “Barnyardgrass plant response rating” value (bamyardgrass; [11]) was 0 and the “Barnyardgrass plant response rating” value (bamyardgrass; [12]) was 0. For the same molecule, the “Plant response rating, Barnyardgrass” value (bamyardgrass; [13]) was 0, the “Barnyardgrass plant response rating” value (bamyardgrass; [14]) was 0 and the “Barnyardgrass plant response rating” value (bamyardgrass; Rate 1000 g/ha, Pre-emergence (as headed), scale 0 to 10) was 0. For the same molecule, the “Barnyardgrass plant response rating” value (bamyardgrass; Rate 2000 g/ha, Pre-emergence (as headed), scale 0 to 10, 0 no effect, 10 complete control) was 0, the “Barnyardgrass plant response rating” value (bamyardgrass; [15]) was 0 and the “Plant response rating, Wheat (winter)” value (winter wheat [1]; Rate 250 g/ha, 0 to 100 scale (0 no effect, 100 complete control)) was 55. For the same molecule, the “Plant response rating, Wheat (winter)” value (winter wheat [1]; Rate 1000 g/ha, 0 to 100 scale, 0 is no effect and 100 is complete control) was 60, the “Plant response rating, Wheat (winter)” value (winter wheat [1]; Rate 500 g/ha, 0 to 100 scale, 0 no effect, 100 complete control) was 70 and the “Plant response rating, Blackgrass” value (blackgrass; Rate 250 g/ha, 0 to 100 scale) was 60. For the same molecule, the “Plant response rating, Blackgrass” value (blackgrass; [16]) was 55, the “Plant response rating, Blackgrass” value (blackgrass; [17]) was 65 and the “Plant response rating, Green foxtail” value (green foxtail; Rate 250 g/ha, 0 to 100 scale) was 40. For the same molecule, the “Plant response rating, Green foxtail” value (green foxtail; [16]) was 55, the “Plant response rating, Green foxtail” value (green foxtail; [17]) was 100 and the “Plant response rating, I. Ryegrass” value (Italian ryegrass; Rate 250 g/ha, 0 to 100 scale) was 30. For the same molecule, the “Plant response rating, I. Ryegrass” value (Italian ryegrass; [16]) was 50, the “Plant response rating, I. Ryegrass” value (Italian ryegrass; [17]) was 60 and the “Plant response rating, Wheat (winter)” value (winter wheat [2]; Rate 250 g/ha, 0 to 100 scale) was 60. For the same molecule, the “Plant response rating, Wheat (winter)” value (winter wheat [2]; [16]) was 40, the “Plant response rating, Wheat (winter)” value (winter wheat [2]; [17]) was 65 and the “Plant response rating, Wild oat” value (wild oat; Rate 500 g/ha) was 60. For the same molecule, the “Plant response rating, Wild oat” value (wild oat; Rate 1000 g/ha) was 70, the “Plant response rating, Barley (winter)” value (winter barley; Rate 250 g/ha, 0 to 100 scale) was 70 and the “Plant response rating, Barley (winter)” value (winter barley; [16]) was 80. The “Plant response rating, Barley (winter)” value (winter barley; [17]) was 70.
